PubChem BioAssay AID248 (DTP/NCI, 2004)
Where “and” joins values, the source holds several entries; their conditions need not be identical. Equal entries are not always repeated. Inconclusive results and toxic doses are left out. Cut-off read from the data, not from the text of the source: active = T/C of 150% or more; inactive = T/C below 125%.

Tested on: L1210 leukemia ip in BDF1 mice, survival T/C
Assay: NCI In Vivo Anticancer Drug Screen. Data for tumor model L1210 Leukemia (intraperitoneal) in B6D2F1 (BDF1) mice
Conditions: endpoint: mean survival time, higher = longer survival
Outline: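 Mice bearing the transplanted tumor received compound or vehicle. Survival of the treated group was divided by that of the vehicle-treated control group to give the ratio.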

[1] = dose: 100.0 mg/kg/injection, schedule: Q01DX009 (ip), vehicle: saline with Tween-80
[2] = dose: 200.0 mg/kg/injection, schedule: Q01DX009 (ip), vehicle: saline with Tween-80
[3] = dose: 100.0 mg/kg/injection, schedule: Q04DX003 (ip), vehicle: Klucel (hydroxypropylcellulose) (HPC)
[4] = dose: 200.0 mg/kg/injection, schedule: Q04DX003 (ip), vehicle: Klucel (hydroxypropylcellulose) (HPC)
[5] = dose: 400.0 mg/kg/injection, schedule: Q04DX003 (ip), vehicle: Klucel (hydroxypropylcellulose) (HPC)
[6] = dose: 12.5 mg/kg/injection, schedule: Q01DX001 (ip), vehicle: saline
[7] = dose: 25.0 mg/kg/injection, schedule: Q01DX001 (ip), vehicle: saline
[8] = dose: 50.0 mg/kg/injection, schedule: Q01DX009 (ip), vehicle: saline with Tween-80
[9] = dose: 100.0 mg/kg/injection, schedule: Q01DX009 (ip), vehicle: Klucel (hydroxypropylcellulose) (HPC)
[10] = dose: 200.0 mg/kg/injection, schedule: Q01DX009 (ip), vehicle: Klucel (hydroxypropylcellulose) (HPC)
[11] = dose: 400.0 mg/kg/injection, schedule: Q01DX009 (ip), vehicle: Klucel (hydroxypropylcellulose) (HPC)
[12] = dose: 100.0 mg/kg/injection, schedule: Q01DX001 (ip), vehicle: saline
[13] = dose: 200.0 mg/kg/injection, schedule: Q01DX001 (ip), vehicle: saline
[14] = dose: 400.0 mg/kg/injection, schedule: Q01DX001 (ip), vehicle: saline
[15] = dose: 100.0 mg/kg/injection, schedule: Q04DX002 (ip), vehicle: Klucel (hydroxypropylcellulose) (HPC)
[16] = dose: 200.0 mg/kg/injection, schedule: Q04DX002 (ip), vehicle: Klucel (hydroxypropylcellulose) (HPC)
[17] = dose: 400.0 mg/kg/injection, schedule: Q01DX009 (ip), vehicle: saline with Tween-80

Measured: T/C

NSc1nc2ccccc2s1
inactive: [1] 95 % of control | dose: 100.0 mg/kg/injection, schedule: Q04DX003 (ip), vehicle: saline sonified 105 % of control | [2] 93 % of control | dose: 200.0 mg/kg/injection, schedule: Q04DX003 (ip), vehicle: saline sonified 96 % of control | dose: 400.0 mg/kg/injection, schedule: Q04DX003 (ip), vehicle: saline sonified 107 % of control

Cc1cc(C)n(N=C2CCCCC2)c(=O)c1C#N
inactive: dose: 100.0 mg/kg/injection, schedule: Q01DX001 (ip), vehicle: Klucel (hydroxypropylcellulose) (HPC) 96 % of control | [3] 100 % of control | dose: 200.0 mg/kg/injection, schedule: Q01DX001 (ip), vehicle: Klucel (hydroxypropylcellulose) (HPC) 105 % of control | [4] 99 % of control | dose: 400.0 mg/kg/injection, schedule: Q01DX001 (ip), vehicle: Klucel (hydroxypropylcellulose) (HPC) 94 % of control | [5] 89 % of control

S=C1NC(c2cccs2)N2C(=S)NC(c3cccs3)N12 (configuration not stated)
inactive: dose: 100.0 mg/kg/injection, schedule: Q01DX009 (ip), vehicle: gum acacia 96 % of control | dose: 100.0 mg/kg/injection, schedule: Q04DX003 (ip), vehicle: gum acacia 92 % of control | dose: 200.0 mg/kg/injection, schedule: Q01DX009 (ip), vehicle: gum acacia 91 % of control | dose: 200.0 mg/kg/injection, schedule: Q04DX003 (ip), vehicle: gum acacia 97 % of control | dose: 400.0 mg/kg/injection, schedule: Q01DX009 (ip), vehicle: gum acacia 98 % of control | dose: 400.0 mg/kg/injection, schedule: Q04DX003 (ip), vehicle: gum acacia 97 % of control

C#CC[P+](c1ccccc1)(c1ccccc1)c1ccccc1
inactive: dose: 6.25 mg/kg/injection, schedule: Q01DX001 (ip), vehicle: saline 106 % of control | [6] 109 % of control | [7] 116 % of control and 118 % of control

CC1CCCC/C1=N/NC(=O)c1ccccc1 (configuration not stated)
inactive: [8] 95 % of control | [1] 110 % of control | [2] 108 % of control

COc1cc2ccc(CCN)cc2cc1OC
inactive: dose: 12.5 mg/kg/injection, schedule: Q01DX009 (ip), vehicle: saline with Tween-80 101 % of control | dose: 25.0 mg/kg/injection, schedule: Q01DX009 (ip), vehicle: saline with Tween-80 101 % of control | [8] 105 % of control

CC(=O)Nc1ccc(NC(=O)Nc2cc([N+](=O)[O-])ccc2C)cc1
inactive: [9] 95 % of control | [10] 93 % of control | [11] 96 % of control

COc1ccc(-c2c(COC(C)=O)c(COC(C)=O)c3n2CCC3)cc1
inactive: dose: 50.0 mg/kg/injection, schedule: Q01DX009 (ip), vehicle: Klucel (hydroxypropylcellulose) (HPC) 113 % of control

C=CCc1ccc(O)c(OC)c1
inactive: dose: 100.0 mg/kg/injection, schedule: Q04DX002 (ip), vehicle: saline + alcohol 108 % of control | dose: 200.0 mg/kg/injection, schedule: Q04DX002 (ip), vehicle: saline + alcohol 101 % of control | dose: 400.0 mg/kg/injection, schedule: Q04DX002 (ip), vehicle: saline + alcohol 97 % of control

O=C1OCc2ccccc2C1O (configuration not stated)
inactive: [12] 111 % of control | [13] 94 % of control | [14] 94 % of control

CCCCSP(=O)(N1CCCCC1)N1CCCCC1
inactive: dose: 25.0 mg/kg/injection, schedule: Q04DX002 (ip), vehicle: saline with Tween-80 97 % of control | dose: 50.0 mg/kg/injection, schedule: Q04DX002 (ip), vehicle: saline with Tween-80 97 % of control | dose: 100.0 mg/kg/injection, schedule: Q04DX002 (ip), vehicle: saline with Tween-80 92 % of control and 94 % of control

O=C(COc1ccc(Cl)c(Cl)c1)NCCc1ccncc1
inactive: dose: 50.0 mg/kg/injection, schedule: Q04DX002 (ip), vehicle: Klucel (hydroxypropylcellulose) (HPC) 103 % of control | [15] 118 % of control | [16] 111 % of control

Cc1cccc(NC(=O)COc2ccc(Cl)cc2)c1C
inactive: [9] 97 % of control | [3] 92 % of control | [10] 94 % of control | [4] 95 % of control | [11] 97 % of control | [5] 96 % of control

CC(=O)Oc1c2ccccc2cc2ccccc12
inactive: [15] 114 % of control | dose: 400.0 mg/kg/injection, schedule: Q04DX002 (ip), vehicle: Klucel (hydroxypropylcellulose) (HPC) 118 % of control

CCc1c(Nc2ccc(C)cc2)[nH]c(N)nc1=S
inactive: dose: 200.0 mg/kg/injection, schedule: Q01DX Z (ip), vehicle: methylcellulose (MC) 89 % of control

O=C(CCCCCCCCC(=O)Nc1cccc(C(F)(F)F)c1)Nc1cccc(C(F)(F)F)c1
inactive: [9] 101 % of control | [10] 92 % of control | [11] 95 % of control

O=S(=O)(Nc1nccs1)c1ccc(Nc2ccnc3cc(Cl)ccc23)cc1
inactive: [12] 93 % of control | [13] 95 % of control | [14] 87 % of control

NC1CC(c2ccccc2)NC(c2ccccc2)C1 (configuration not stated)
inactive: dose: 15.0 mg/kg/injection, schedule: Q01DX001 (ip), vehicle: carboxymethylcellulose (CMC) 100 % of control

O=C(N/N=C/c1ccc2c(c1)CCC2)c1cccc(O)c1
inactive: [3] 96 % of control | [4] 95 % of control | [5] 91 % of control

Cc1ccc(C(C)C)cc1N1C(=O)C2C(C1=O)C1(Cl)C(Cl)=C(Cl)C2(Cl)C1(Cl)Cl (configuration not stated)
inactive: [9] 92 % of control | [10] 97 % of control | [11] 91 % of control

CC(=O)COc1cccc(Cl)c1Cl
inactive: [1] 98 % of control | [2] 95 % of control | [17] 101 % of control

CC(=O)OC1C(C(=O)O)CC(C(=O)O)C1OC(C)=O (configuration not stated)
inactive: dose: 88.0 mg/kg/injection, schedule: Q01DX001 (ip), vehicle: saline 88 % of control | [12] 108 % of control | dose: 133.0 mg/kg/injection, schedule: Q01DX001 (ip), vehicle: saline 98 % of control | [13] 98 % of control | dose: 300.0 mg/kg/injection, schedule: Q01DX001 (ip), vehicle: saline 98 % of control | [14] 106 % of control

CCO/C=N/c1oc(-c2ccccc2)nc1C#N
inactive: [15] 91 % of control | [16] 96 % of control

C/C=C/C=C/CC
inactive: [12] 109 % of control | [13] 102 % of control | [14] 109 % of control

CCOC(=O)C12CC=CC(CCC1)C2=O (configuration not stated) (tested in a mixture with another compound)
inactive: [1] 112 % of control | dose: 100.0 mg/kg/injection, schedule: Q04DX003 (ip), vehicle: saline with Tween-80 103 % of control | [2] 101 % of control | dose: 200.0 mg/kg/injection, schedule: Q04DX003 (ip), vehicle: saline with Tween-80 102 % of control | [17] 101 % of control | dose: 400.0 mg/kg/injection, schedule: Q04DX003 (ip), vehicle: saline with Tween-80 105 % of control

Cc1ccc(/C=C2\CCC3C(=O)CCCC3C2=O)cc1 (configuration not stated)
inactive: [12] 107 % of control | [13] 89 % of control

O=C(/C(=C\c1ccccc1)Oc1ccc([N+](=O)[O-])cc1)c1ccccc1
inactive: [12] 88 % of control | [13] 92 % of control | [14] 95 % of control

O=C(Nc1ccccc1C(F)(F)F)OCCOc1ccc(Cl)cc1
inactive: [9] 98 % of control | [10] 91 % of control | [11] 87 % of control

Nc1ncc(C(=O)O)s1
inactive: [9] 98 % of control | [10] 103 % of control | [11] 87 % of control

NCC1C2CC3CC(C2)CC1C3 (configuration not stated)
inactive: [6] 106 % of control | [7] 97 % of control | dose: 50.0 mg/kg/injection, schedule: Q01DX001 (ip), vehicle: saline 93 % of control | [15] 98 % of control | [16] 96 % of control

Nc1nc(C=O)c(-c2cccc3ccccc23)c(=O)[nH]1
inactive: [1] 112 % of control | [2] 94 % of control
